Structures can show the parent of a compound that is named as a salt.

This assay addresses T1, human LCE (Homo sapiens, UniProt Q9H5J4).
T1 sequence (Q9H5J4 1-265): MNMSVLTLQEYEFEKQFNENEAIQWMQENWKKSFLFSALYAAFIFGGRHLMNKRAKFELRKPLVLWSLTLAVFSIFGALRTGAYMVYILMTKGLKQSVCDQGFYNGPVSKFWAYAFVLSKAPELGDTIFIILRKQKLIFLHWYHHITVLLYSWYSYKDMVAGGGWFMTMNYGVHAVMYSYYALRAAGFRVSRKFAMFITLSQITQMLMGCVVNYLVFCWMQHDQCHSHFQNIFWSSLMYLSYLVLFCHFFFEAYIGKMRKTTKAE
Briefly: LCE enzyme activity-inhibitory test. The class given is biochemical. The following applies: [14C]-malonyl CoA / palmitoyl CoA substrate, 37° C., 90 minutes. The essentials: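 Human LCE (100 μg/mL in enzyme solution) was incubated 90 min at 37 °C in 100 mM potassium phosphate pH 6.5 with palmitoyl CoA, malonyl CoA, [14C]-malonyl CoA, rotenone and fatty acid-free BSA. Acid-stopped, hydrolyzed products were captured on GF/C filters and counted by scintillation. Inhibition was calculated against DMSO control.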
A word on the IC50: it is the concentration at which inhibition is half-maximal. A high value points to lower potency. In the case of `CC(C)c1ccc(NC(=O)c2cccc(S(=O)(=O)N3CCOCC3)c2)cc1` [Example 29, N-(4-isopropylphenyl)-3-(morpholin-4-ylsulfonyl)benzamide], the IC50 came out at 180 nM.

The molecule `Cc1ccc(NC(=O)c2cccc(S(=O)(=O)N3CCCCC3)c2)cc1` [Example 84, N-(4-methylphenyl)-3-(piperidin-1-ylsulfonyl)benzamide] showed an IC50 of 2600 nM. Next, `COc1ccccc1NC(=O)c1cccc(S(=O)(=O)N2CCCC(C(N)=O)C2)c1` (stereo not drawn) [Example 43, 1-[(3-{[(2-methoxyphenyl)amino]carbonyl]phenyl)sulfonyl}piperidine-3-carboxamide]: 530 nM; `CC(C)Oc1ccc(NC(=O)c2cccc(S(=O)(=O)N3C[C@@H]4C[C@H]3CN4C)c2)cc1` [Example 8, N-(4-isopropoxyphenyl)-3-{[(1S,4S)-5-methyl-2,5-diazabicyclo[2.2.1]hept-2-yl]sulfonyl}benzamide trifluoroacetate]: 9600 nM. Next, `CC(C)Oc1ccc(NC(=O)c2cccc(S(=O)(=O)c3cn[nH]c3)c2)cc1` [Example 143, N-(4-isopropoxyphenyl)-3-(1H-pyrazol-4-ylsulfonyl)benzamide]: 4500 nM; `COc1cccnc1NC(=O)c1cccc(S(=O)(=O)N2CCCC(C(N)=O)C2)c1` (stereo not drawn) [Example 57, 1-[(3-{[(3-methoxypyridin-2-yl)amino]carbonyl}phenyl)sulfonyl]piperidine-3-carboxamide]: 830 nM; `CC(C)c1ccc(NC(=O)c2cccc(S(=O)(=O)N3CCCCC3C)c2)cc1` (stereo not drawn) [Example 30, N-(4-isopropylphenyl)-3-[(2-methylpiperidin-1-yl)sulfonyl]benzamide]: 100 nM. The figure for `COc1ccc(S(=O)(=O)N2CCCCC2)cc1C(=O)Nc1ccc(C(C)C)cc1` [Example 150, N-(4-isopropylphenyl)-2-methoxy-5-(piperidin-1-ylsulfonyl)benzamide] is 31 nM. Turning to `CC(C)Oc1ccc(NC(=O)c2cccc(S(=O)(=O)N3CC4CCC3C4)c2)cc1` (stereo not drawn) [Example 2, 3-(2-Azabicyclo[2.2.1]hept-2-ylsulfonyl)-N-(4-isopropoxyphenyl)benzamide], the IC50 came to 36 nM. Next, `COc1cc(Oc2ccccc2)cnc1NC(=O)c1cccc(S(=O)(=O)N2CCCC2)c1` [Example 110, N-(3-methoxy-5-phenoxypyridin-2-yl)-3-(pyrrolidin-1-ylsulfonyl)benzamide]: 210 nM; `CCOc1cc(NC(=O)c2cccc(S(=O)(=O)c3ccccn3)c2)[nH]n1` [Example 117, N-(3-ethoxy-1H-pyrazol-5-yl)-3-(pyridin-2-ylsulfonyl)benzamide]: 280 nM.

As to `CC(C)Oc1ccc(NC(=O)c2cccc(S(=O)(=O)N3CCOC(COc4ccccc4)C3)c2)cc1` (stereo not drawn) [Example 9, N-(4-isopropoxyphenyl)-3-{[2-(phenoxymethyl)morpholin-4-yl]sulfonyl}benzamide], the IC50 worked out at 150 nM.

Molecule `COc1cccnc1NC(=O)c1cccc(S(=O)(=O)c2ccccc2)c1` [Example 135, N-(3-methoxypyridin-2-yl)-3-(phenylsulfonyl)benzamide] gave a 50% inhibitory concentration (IC50) of 510 nM. Next, `CCOc1ccc(S(=O)(=O)N2CCCCC2)cc1C(=O)Nc1ccc(OC(C)C)cc1` [Example 152, 2-Ethoxy-N-(4-isopropoxyphenyl)-5-(piperidin-1-ylsulfonyl)benzamide]: 180 nM. Next, `CC(C)c1ccc(NC(=O)c2cccc(S(=O)(=O)c3ccccn3)c2)cc1` [Example 121, N-(4-isopropylphenyl)-3-(pyridin-2-ylsulfonyl)benzamide]: 180 nM; `CC(C)Oc1ccc(NC(=O)c2cccc(S(=O)(=O)N3CCCCC3)c2)cn1` [Example 100, N-(6-isopropoxypyridin-3-yl)-3-(piperidin-1-ylsulfonyl)benzamide]: 39 nM; `CC(C)c1ccc(NC(=O)c2cccc(S(=O)(=O)c3ccccc3)n2)cc1` [Example 157, N-(4-isopropylphenyl)-6-(phenylsulfonyl)pyridine-2-carboxamide]: 1400 nM. Turning to `CC(C)c1ccc(NC(=O)c2cccc(S(=O)(=O)NC3CCCCC3)c2)cc1` [Example 38, 3-[(Cyclohexylamino)sulfonyl]-N-(4-isopropylphenyl)benzamide], the IC50 came to 1000 nM.

With `CC(C)(O)c1ccc(NC(=O)c2cccc(S(=O)(=O)N3CCCCC3)c2)cc1` [Example 94, N-[4-(1-hydroxy-1-methylethyl)phenyl]-3-(piperidin-1-ylsulfonyl)benzamide], the IC50 was 5100 nM. Next, `O=C(NCc1ccccc1)c1cccc(S(=O)(=O)N2CCCCC2)c1` [Example 73, N-benzyl-3-(piperidin-1-ylsulfonyl)benzamide]: 5500 nM; `CCOc1cccnc1NC(=O)c1cccc(S(=O)(=O)N2CCCC2)c1` [Example 113, N-(3-ethoxypyridin-2-yl)-3-(pyrrolidin-1-ylsulfonyl)benzamide]: 400 nM.

In turn, `CC(C)Oc1ccc(NC(=O)c2cccc(S(=O)(=O)c3ccccn3)c2)nc1Br` [Example 129, N-(6-bromo-5-isopropoxypyridin-2-yl)-3-(pyridin-2-ylsulfonyl)benzamide] came in with an IC50 of 4500 nM.

`CC(C)Oc1cc(NC(=O)c2cccc(S(=O)(=O)N3CCCC3C)c2)[nH]n1` (stereo not drawn) [Example 64, 3-Isopropoxy-5-({3-[(2-methylpyrrolidin-1-yl)sulfonyl]benzoyl}amino)-1H-pyrazole hydrochloride] displayed an IC50 of 5 nM. Take `CC(C)Oc1ccc(NC(=O)c2cccc(S(=O)(=O)N3CCCC(OCc4ccccn4)C3)c2)cc1` (stereo not drawn) [Example 21, N-(4-isopropoxyphenyl)-3-{[3-(pyridin-2-ylmethoxy)piperidin-1-yl]sulfonyl}benzamide trifluoroacetate]: the IC50 turned out to be 200 nM. The figure for `COc1cccnc1NC(=O)c1cccc(S(=O)(=O)N2C3CCC2CC3)c1` [Example 52, 3-(7-Azabicyclo[2.2.1]hept-7-ylsulfonyl)-N-(3-methoxypyridin-2-yl)benzamide] is 930 nM; for `CC(C)Oc1cc(NC(=O)c2cccc(S(=O)(=O)N3CCCC(O)C3)c2)[nH]n1` (stereo not drawn) [Example 66, 5-({3-[(3-Hydroxypiperidin-1-yl)sulfonyl}benzoyl]amino)-3-isopropoxy-1H-pyrazole hydrochloride] it is 28 nM. Next, `CC(C)Oc1ccc(NC(=O)c2cccc(S(=O)(=O)N3CC4CCC3CC4)c2)cc1` [Example 16, 3-(2-Azabicyclo[2.2.2]oct-2-ylsulfonyl)-N-(4-isopropoxyphenyl)benzamide]: 110 nM; `O=C(Nc1ccon1)c1cccc(S(=O)(=O)N2CCCCC2)c1` [Example 82, N-isoxazol-3-yl-3-(piperidin-1-ylsulfonyl)benzamide]: 7300 nM; `O=C(N[C@H]1CCCc2ccccc21)c1cccc(S(=O)(=O)N2CCCCC2)c1` [Example 83, 3-(Piperidin-1-ylsulfonyl)-N-[(1S)-1,2,3,4-tetrahydronaphthalen-1-yl]benzamide]: 5000 nM. Turning to `CC(C)Oc1cc(NC(=O)c2cccc(S(=O)(=O)N3CCOCC3)c2)[nH]n1` [Example 63, 3-Isopropoxy-5-{[3-(morpholin-4-ylsulfonyl)benzoyl]amino}-1H-pyrazole hydrochloride], half-maximal inhibition (IC50) was put at 18 nM. The figure for `COc1cccnc1NC(=O)c1cccc(S(=O)(=O)N2CCCC(C(=O)NCc3ccccc3)C2)c1` (stereo not drawn) [Example 61, N-benzyl-1-[(3-{[(3-methoxypyridin-2-yl)amino]carbonyl}phenyl)sulfonyl]piperidine-3-carboxamide] is 54 nM. Next, `CC(C)Oc1ccc(NC(=O)c2cccc(S(=O)(=O)N3CCCC(OCc4cccnc4)C3)c2)cc1` (stereo not drawn) [Example 20, N-(4-isopropoxyphenyl)-3-{[3-(pyridin-3-ylmethoxy)piperidin-1-yl]sulfonyl}benzamide trifluoroacetate]: 530 nM. `CCCOc1cc(NC(=O)c2cccc(S(=O)(=O)c3ccccn3)c2)[nH]n1` [Example 118, N-(3-propoxy-1H-pyrazol-5-yl)-3-(pyridin-2-ylsulfonyl)benzamide] returned an IC50 of 24 nM.

Source of the values: patent US8420823B2, “Long-chain fatty acyl elongase inhibitor comprising arylsulfonyl derivative as active ingredient” (MSD K.K., priority 2008, dated 2013).
